According to patent US12673924B2, “Valiolamine derivatives as glucosidase inhibitors” (Emergent Product Development Gaithersburg Inc., priority 2021, dated 2026):

Target: T1, rat sucrase (Rattus norvegicus, UniProt P23739)
T1 construct: partially purified alpha-glucosidase from intestinal rat powder; from tissue; host or cells: rat intestinal powder
Assay: Intestinal alpha-glucosidase assay, sucrose substrate
Assay type: biochemical
Details: alpha-glucosidase from intestinal rat powder
Description: Intestinal alpha-glucosidases (rat maltase and sucrase): Intestinal alpha-glucosidases act upon 1,4-alpha-glucoside bonds, breaking down disaccharides to glucose. To perform this assay, partially purified alpha-glucosidase from intestinal rat powder was incubated for 60 minutes at 37° C. with multiple dilutions of test compounds. Maltose or Sucrose respectively was then introduced as substrate to the mixture and incubated for 30 minutes at 37° C. The reaction was stopped by a 5-minute incubation at 90° C. and the resultant glucose production is detected using Sigma's Glucose GO Kit. Percent inhibition was then plotted as a function of concentration for each test compound. The IC50 was determined using a 4-PL curve fit and serves as the measure of relative inhibition of each test compound (see Table 4). Table 4 summarizes the results of IC50s for each molecule against each tested glucosidase enzyme.

T1 sequence (P23739 whole entry): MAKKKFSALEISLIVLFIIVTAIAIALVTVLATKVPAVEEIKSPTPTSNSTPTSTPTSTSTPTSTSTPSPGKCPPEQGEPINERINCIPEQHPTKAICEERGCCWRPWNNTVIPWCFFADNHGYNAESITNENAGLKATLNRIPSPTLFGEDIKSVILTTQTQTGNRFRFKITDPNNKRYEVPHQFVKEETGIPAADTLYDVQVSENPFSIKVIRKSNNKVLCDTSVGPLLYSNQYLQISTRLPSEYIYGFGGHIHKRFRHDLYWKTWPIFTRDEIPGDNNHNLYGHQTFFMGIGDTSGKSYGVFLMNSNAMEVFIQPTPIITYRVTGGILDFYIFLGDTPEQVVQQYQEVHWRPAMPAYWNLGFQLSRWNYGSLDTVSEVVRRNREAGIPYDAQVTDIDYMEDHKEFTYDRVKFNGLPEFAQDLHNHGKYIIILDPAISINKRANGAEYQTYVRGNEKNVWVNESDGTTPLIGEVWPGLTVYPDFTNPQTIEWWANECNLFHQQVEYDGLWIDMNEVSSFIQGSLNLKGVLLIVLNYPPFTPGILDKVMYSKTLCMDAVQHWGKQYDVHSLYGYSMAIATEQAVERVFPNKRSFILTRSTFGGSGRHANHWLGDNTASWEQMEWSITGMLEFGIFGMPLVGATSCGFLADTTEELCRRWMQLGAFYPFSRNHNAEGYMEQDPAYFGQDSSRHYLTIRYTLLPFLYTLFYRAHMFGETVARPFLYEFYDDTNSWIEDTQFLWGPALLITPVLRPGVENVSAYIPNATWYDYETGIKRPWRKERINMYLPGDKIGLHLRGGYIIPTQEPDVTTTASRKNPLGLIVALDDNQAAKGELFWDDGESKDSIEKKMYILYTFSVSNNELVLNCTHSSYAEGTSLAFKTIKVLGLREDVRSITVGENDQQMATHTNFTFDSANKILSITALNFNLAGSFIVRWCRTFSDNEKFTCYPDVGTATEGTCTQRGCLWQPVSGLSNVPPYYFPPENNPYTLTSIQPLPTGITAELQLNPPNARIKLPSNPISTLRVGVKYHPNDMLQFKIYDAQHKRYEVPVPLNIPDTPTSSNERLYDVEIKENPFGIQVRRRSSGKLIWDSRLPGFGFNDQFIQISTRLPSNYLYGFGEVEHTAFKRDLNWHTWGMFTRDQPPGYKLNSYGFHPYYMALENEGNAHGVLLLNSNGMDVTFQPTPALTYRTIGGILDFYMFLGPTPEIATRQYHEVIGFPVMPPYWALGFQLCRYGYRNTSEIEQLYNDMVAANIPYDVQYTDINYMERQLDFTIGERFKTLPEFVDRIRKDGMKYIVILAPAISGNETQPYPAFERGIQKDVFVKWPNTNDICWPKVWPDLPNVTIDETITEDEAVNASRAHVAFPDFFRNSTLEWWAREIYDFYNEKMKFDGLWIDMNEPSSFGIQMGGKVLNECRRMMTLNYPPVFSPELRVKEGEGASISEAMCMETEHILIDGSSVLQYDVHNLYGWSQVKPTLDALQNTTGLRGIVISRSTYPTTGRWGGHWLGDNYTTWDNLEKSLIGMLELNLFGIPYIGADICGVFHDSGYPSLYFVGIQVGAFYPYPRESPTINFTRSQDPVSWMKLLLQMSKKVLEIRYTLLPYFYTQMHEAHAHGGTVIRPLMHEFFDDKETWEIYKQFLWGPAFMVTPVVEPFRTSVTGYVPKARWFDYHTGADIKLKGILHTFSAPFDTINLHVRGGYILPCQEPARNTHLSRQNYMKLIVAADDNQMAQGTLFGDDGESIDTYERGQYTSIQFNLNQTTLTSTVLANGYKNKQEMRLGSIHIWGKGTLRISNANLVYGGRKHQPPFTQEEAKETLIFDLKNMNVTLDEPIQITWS

Row | Compound | IC50
1 | O=[N+]([O-])c1cc(-n2cnnn2)ccc1NCCCCCCN[C@H]1C[C@](O)(CO)[C@@H](O)[C@H](O)[C@H]1O [Compound 4, (1S,2S,3R,4S,5S)-1-(hydroxymethyl)-5-((6-((2-nitro-4-(1H-tetrazol-1-yl)phenyl)amino)hexyl)amino)cyclohexane-1,2,3,4-tetraol] | 2930 nM
2 | O=[N+]([O-])c1cc(-n2nccn2)ccc1NCCCCCCN[C@H]1C[C@](O)(CO)[C@@H](O)[C@H](O)[C@H]1O [Compound 5, (1S,2S,3R,4S,5S)-1-(hydroxymethyl)-5-((6-((2-nitro-4-(2H-1,2,3-triazol-2-yl)phenyl)amino)hexyl)amino)cyclohexane-1,2,3,4-tetraol] | 34.2 nM
3 | [N-]=[N+]=Nc1ccc(NCCCCCN[C@H]2C[C@](O)(CO)[C@@H](O)[C@H](O)[C@H]2O)c([N+](=O)[O-])c1 [Compound 9, (1S,2S,3R,4S,5S)-5-((5-((4-azido-2-nitrophenyl)amino)pentyl)amino)-1-(hydroxymethyl)cyclohexane-1,2,3,4-tetraol] | 11.2 nM

Results, then the compound that gave them:

Row | IC50 | Compound
4 | < 33.3 nM | [N-]=[N+]=Nc1ccc(NCCCCCCN[C@H]2C[C@](O)(CO)[C@@H](O)[C@H](O)[C@H]2O)c([N+](=O)[O-])c1 [Compound 2, (1S,2S,3R,4S,5S)-5-((6-((4-azido-2-nitrophenyl)amino)hexyl)amino)-1-(hydroxymethyl)cyclohexane-1,2,3,4-tetraol]
5 | 116 nM | COCCCCCCCCCN[C@H]1C[C@](O)(CO)[C@@H](O)[C@H](O)[C@H]1O [Compound 3, (1S,2S,3R,4S,5S)-1-(hydroxymethyl)-5-((9-methoxynonyl)amino)cyclohexane-1,2,3,4-tetraol]
6 | 67.4 nM | O=[N+]([O-])c1cc(-n2ccnn2)ccc1NCCCCCCN[C@H]1C[C@](O)(CO)[C@@H](O)[C@H](O)[C@H]1O [Compound 6, (1S,2S,3R,4S,5S)-1-(hydroxymethyl)-5-((6-((2-nitro-4-(1H-1,2,3-triazol-1-yl)phenyl)amino)hexyl)amino)cyclohexane-1,2,3,4-tetraol]
7 | 3160 nM | O=C(O)CCCCN[C@H]1C[C@](O)(CO)[C@@H](O)[C@H](O)[C@H]1O [Compound 11, 5-(((1S,2S,3R,4S,5S)-2,3,4,5-tetrahydroxy-5-(hydroxymethyl)cyclohexyl)amino)pentanoic acid]
8 | 334 nM | N[C@H]1C[C@](O)(CO)[C@@H](O)[C@H](O)[C@H]1O [Valiolamine]
